Test results from patent US9775915B2, “Trioxacarcins, trioxacarcin-antibody conjugates, and uses thereof” (President and Fellows of Harvard College, priority 2012, dated 2017).
Entries after “also recorded” stand apart in the source; their conditions may differ.

What was measured:
[1] = tested on: H460, T-47D, HEK293, N87, MDA-MB-361/DYT2, HT-29, HL-60 and HEL 92.1.7 cells; assay: Growth inhibition (GI50) comparison of trioxacarcins, FIG. 10 cell line panel; assay type: cell-based; conditions: structure-activity comments on FIG. 10
Method: Cell Proliferation Assay. A suspension of H460 cells (3000 cells/well) in growth medium was seeded onto a 96-well plate. The 96-well plate was incubated for 24 h at 37° C. Stock solutions of each compound were diluted serially and the resulting solutions were administrated to cells to achieve final concentrations of 110 pM to 250 nM (trioxacarcin A) or 1.1 nM to 2.5 μM (all other compounds). After incubating at 37° C. for 72 h, 20 μL of resazurin solution (Promega CellTiter-Blue® Cell Viability Assay) was added to each well. After incubating at 37° C. for 2.0 h, the fluorescence (560 nm excitation/590 nm emission) was recorded using a microplate reader (SpectraMax PLUS^384) as a measure of viable cells. Percent growth inhibition was calculated for each well, based upon the following formula: Percent growth inhibition=100×(S−B0)/(Bt−B0); where S is the sample fluorescence, Bt is the average fluorescence for a vehicle-treated population of cells at the completion of the assay, and B0 is the average fluorescence for an untreated population of cells at the beginning of the assay. The average percent inhibition at each concentration was plotted against log(concentration), and a curve fit was generated using a four-parameter logistic equation. GI50 values were computed to reflect the concentrations at which the resulting curves pass through 50% inhibition. […]

[2] = Chemical stability (base, aqueous or alcoholic solvents); assay type: physicochemical; conditions: basic conditions in aqueous or alcoholic solvents
[3] = tested on: lung (LXFL 529L, H-460), mammary (MCF-7), and CNS (SF-268) cancer cell lines; conditions: human cancer cell lines; Maskey et al. 2004; cited from earlier work
[4] = tested on: H460 cells; assay: Cell proliferation assay (CellTiter-Blue resazurin), H460 cells; assay type: cell-based; conditions: 72 h incubation
Method: H460 cells were purchased from American Type Culture Collection (ATCC).
A suspension of H460 cells (3000 cells/well) in growth medium was seeded onto a 96-well plate. The 96-well plate was incubated for 24 h at 37° C. […] After incubating at 37° C. for 72 h, 20 μL of resazurin solution (Promega CellTiter-Blue® Cell Viability Assay) was added to each well. […] Percent growth inhibition was calculated for each well, based upon the following formula: Percent growth inhibition=100×(S−B0)/(Bt−B0); where S is the sample fluorescence, Bt is the average fluorescence for a vehicle-treated population of cells at the completion of the assay, and B0 is the average fluorescence for an untreated population of cells at the beginning of the assay. The average percent inhibition at each concentration was plotted against log(concentration), and a curve fit was generated using a four-parameter logistic equation.

Row | stability under basic conditions [2] | GI50 [4] [nM] | SMILES | antiproliferative activity (in words, FIG. 10) [1] | IC70 [3]
1 | – | – | COc1c2c(c(O)c3c4c(c(C)cc13)[C@@H]1O[C@@]3(C(OC)OC)O[C@@H]1[C@@](O)(O4)[C@@]31CO1)C(=O)[C@@H](O)C[C@@H]2O[C@H]1C[C@@](C)(O)[C@H](OC(C)=O)[C@H](C)O1 [DC-45-A1] | highly potent antiproliferative agents | –
2 | unstable | 0.85 ± 0.36 | COc1c2c(c(O)c3c4c(c(C)cc13)[C@@H]1O[C@@]3(C(OC)OC)O[C@@H]1[C@@](O[C@H]1C[C@@H](O)[C@@](O)(C(C)=O)[C@H](C)O1)(O4)[C@@]31CO1)C(=O)[C@@H](O)C[C@@H]2O[C@H]1C[C@@](C)(O)[C@H](OC(C)=O)[C@H](C)O1 [trioxacarcin A] | – | subnanomolar; also recorded: subnanmolar
